# Results taken from ChEMBL document CHEMBL1159363, “New cytotoxic alkaloids from the wood of Vepris punctata from the Madagascar rainforest” (J Nat Prod, 2003).
# Test system: A2780
# Test: Cytotoxicity against human A2780 cells
# Format: functional, cell-based
row,SMILES,IC50 [µg/mL]
1,COc1c2c(c(OC)c3c(OC)c4ccoc4nc13)OCO2,3.5
2,COc1c2c(cc3nc4occc4c(OC)c13)OCO2,2.8
3,COc1c(OC)c(OC)c2c(OC)c3ccoc3nc2c1OC,3.4
4,COc1c2ccoc2nc2c(OC)c3c(cc12)OCO3 [FLINDERSIAMINE],3.3
5,COc1cc2nc3occc3c(OC)c2cc1OC [KOKUSAGININE],3.5
6,COc1c2cc3c(cc2nc2occc12)OCO3 [MACULINE],4
7,COc1ccc2c(OC)c3ccoc3nc2c1OC [SKIMMIANINE],4.2
